# Assay results from PubChem BioAssay AID1963959 (Molecular Pharmacology Branch, DTP, NCI, 2024).
# Tested on: T-47D spheroids with HUVEC/MSC, viability
# Test: Anticancer human tumor T-47D cell line growth inhibition [PI3K];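 also: spheroids exposed to agents for seven days before reading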;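 as to viability, T/C: percent of DMSO vehicle control luminescence so 100% = untreated growth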
# Conditions: for IC50: curve of first compound; for viability, T/C: stronger effect = lower value
# Outline: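 Multi-cell spheroids combine tumor cells with HUVEC and human MSCs, treated with targeted agents alone or with inavolisib, alpelisib, duvelisib or copanlisib. Concentrations fall in half-log steps from at or near clinical Cmax, or from 10 microM where Cmax is unknown; viability read-out.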
# [1] = second compound 0.0316 µM, first compound 0.0316 µM
# [2] = second compound 0.0316 µM, first compound 0.1 µM
# [3] = second compound 0.0316 µM, first compound 0.316 µM
# [4] = second compound 0.0316 µM, first compound 1 µM
# [5] = second compound 0.0316 µM, first compound 3.16 µM
# [6] = second compound 0.0316 µM, first compound 10 µM
# [7] = second compound 0.1 µM, first compound 0.0316 µM
# [8] = second compound 0.1 µM, first compound 0.1 µM
# [9] = second compound 0.1 µM, first compound 0.316 µM
# [10] = second compound 0.1 µM, first compound 1 µM
# [11] = second compound 0.1 µM, first compound 3.16 µM
# [12] = second compound 0.1 µM, first compound 10 µM
# [13] = second compound 0.316 µM, first compound 0.0316 µM
# [14] = second compound 0.316 µM, first compound 0.1 µM
# [15] = second compound 0.316 µM, first compound 0.316 µM
# [16] = second compound 0.316 µM, first compound 1 µM
# [17] = second compound 0.316 µM, first compound 3.16 µM
# [18] = second compound 0.316 µM, first compound 10 µM
# [19] = second compound 1 µM, first compound 0.0316 µM
# [20] = second compound 1 µM, first compound 0.1 µM
# [21] = second compound 1 µM, first compound 0.316 µM
# [22] = second compound 1 µM, first compound 1 µM
# [23] = second compound 1 µM, first compound 3.16 µM
# [24] = second compound 1 µM, first compound 10 µM
# [25] = second compound 3.16 µM, first compound 0.0316 µM
# [26] = second compound 3.16 µM, first compound 0.1 µM
# [27] = second compound 3.16 µM, first compound 0.316 µM
# [28] = second compound 3.16 µM, first compound 1 µM
# [29] = second compound 3.16 µM, first compound 3.16 µM
# [30] = second compound 3.16 µM, first compound 10 µM
# [31] = second compound 10 µM, first compound 0.0316 µM
# [32] = second compound 10 µM, first compound 0.1 µM
# [33] = second compound 10 µM, first compound 0.316 µM
# [34] = second compound 10 µM, first compound 1 µM
# [35] = second compound 10 µM, first compound 3.16 µM
# [36] = second compound 10 µM, first compound 10 µM
structure (smiles),measurement,setting,value
CNC(=O)c1ccc(N2C(=S)N(c3ccc(C#N)c(C(F)(F)F)c3)C(=O)C2(C)C)cc1F + Cc1nc(NC(=O)N2CCCC2C(N)=O)sc1-c1ccnc(C(C)(C)C(F)(F)F)c1,IC50,second compound 0.0316 µM,> 10000 nM
same,IC50,second compound 0.1 µM,> 10000 nM
same,IC50,second compound 0.316 µM,> 10000 nM
same,IC50,second compound 1 µM,> 10000 nM
same,IC50,second compound 3.16 µM,> 10000 nM
same,IC50,second compound 10 µM,< 31.6 nM
same,"viability, T/C",[1],113%
same,"viability, T/C",[2],82%
same,"viability, T/C",[3],97%
same,"viability, T/C",[4],87.1%
same,"viability, T/C",[5],91.1%
same,"viability, T/C",[6],87.9%
same,"viability, T/C",[7],111%
same,"viability, T/C",[8],96.5%
same,"viability, T/C",[9],93.2%
same,"viability, T/C",[10],88.4%
same,"viability, T/C",[11],97.7%
same,"viability, T/C",[12],84.9%
same,"viability, T/C",[13],91.8%
same,"viability, T/C",[14],85%
same,"viability, T/C",[15],94.3%
same,"viability, T/C",[16],85.9%
same,"viability, T/C",[17],101%
same,"viability, T/C",[18],88.5%
same,"viability, T/C",[19],82.9%
same,"viability, T/C",[20],96.4%
same,"viability, T/C",[21],85.1%
same,"viability, T/C",[22],78.3%
same,"viability, T/C",[23],91.9%
same,"viability, T/C",[24],66.8%
same,"viability, T/C",[25],72%
same,"viability, T/C",[26],76%
same,"viability, T/C",[27],72.2%
same,"viability, T/C",[28],69.5%
same,"viability, T/C",[29],62.3%
same,"viability, T/C",[30],58%
same,"viability, T/C",[31],43.2%
same,"viability, T/C",[32],41.2%
same,"viability, T/C",[33],40.5%
same,"viability, T/C",[34],44.5%
same,"viability, T/C",[35],33.7%
same,"viability, T/C",[36],30.4%
CC(C)NCC(C(=O)N1CCN(c2ncnc3c2C(C)CC3O)CC1)c1ccc(Cl)cc1 (stereo unspecified) + Cc1nc(NC(=O)N2CCCC2C(N)=O)sc1-c1ccnc(C(C)(C)C(F)(F)F)c1,IC50,second compound 0.0316 µM,> 10000 nM
same,IC50,second compound 0.1 µM,7980 nM
same,IC50,second compound 0.316 µM,> 10000 nM
same,IC50,second compound 1 µM,2120 nM
same,IC50,second compound 3.16 µM,585 nM
same,IC50,second compound 10 µM,< 31.6 nM
same,"viability, T/C",[1],85.2%
same,"viability, T/C",[2],79.7%
same,"viability, T/C",[3],84.6%
same,"viability, T/C",[4],61.1%
same,"viability, T/C",[5],58.1%
same,"viability, T/C",[6],55.3%
same,"viability, T/C",[7],93.5%
same,"viability, T/C",[8],86.4%
same,"viability, T/C",[9],81.1%
same,"viability, T/C",[10],62.6%
same,"viability, T/C",[11],58.1%
same,"viability, T/C",[12],47.7%
same,"viability, T/C",[13],88.7%
same,"viability, T/C",[14],87.8%
same,"viability, T/C",[15],73.1%
same,"viability, T/C",[16],66%
same,"viability, T/C",[17],49.8%
same,"viability, T/C",[18],55.5%
same,"viability, T/C",[19],81.9%
same,"viability, T/C",[20],82.5%
same,"viability, T/C",[21],79.1%
same,"viability, T/C",[22],62.7%
same,"viability, T/C",[23],43.1%
same,"viability, T/C",[24],40.3%
same,"viability, T/C",[25],57.5%
same,"viability, T/C",[26],57.5%
same,"viability, T/C",[27],56.7%
same,"viability, T/C",[28],44.1%
same,"viability, T/C",[29],37%
same,"viability, T/C",[30],37.2%
same,"viability, T/C",[31],37.4%
same,"viability, T/C",[32],32.9%
same,"viability, T/C",[33],34.6%
same,"viability, T/C",[34],27%
same,"viability, T/C",[35],22.1%
same,"viability, T/C",[36],28.6%
CCN1CCN(Cc2ccc(Nc3ncc(F)c(-c4cc(F)c5nc(C)n(C(C)C)c5c4)n3)nc2)CC1 + CC(Nc1ncnc2nc[nH]c12)c1cc2cccc(Cl)c2c(=O)n1-c1ccccc1,IC50,second compound 0.0316 µM,> 1000 nM
same,IC50,second compound 0.1 µM,> 1000 nM
same,IC50,second compound 0.316 µM,> 1000 nM
same,IC50,second compound 1 µM,> 1000 nM
same,IC50,second compound 3.16 µM,> 1000 nM
same,IC50,second compound 10 µM,> 1000 nM
same,"viability, T/C","second compound 0.0316 µM, first compound 0.00316 µM",107%
same,"viability, T/C","second compound 0.0316 µM, first compound 0.01 µM",97.2%
same,"viability, T/C",[1],91.7%
same,"viability, T/C",[2],74.7%
same,"viability, T/C",[3],95.7%
same,"viability, T/C",[4],94.5%
same,"viability, T/C","second compound 0.1 µM, first compound 0.00316 µM",114%
same,"viability, T/C","second compound 0.1 µM, first compound 0.01 µM",87.1%
same,"viability, T/C",[7],81.8%
same,"viability, T/C",[8],96%
same,"viability, T/C",[9],88.5%
same,"viability, T/C",[10],92.3%
same,"viability, T/C","second compound 0.316 µM, first compound 0.00316 µM",103%
same,"viability, T/C","second compound 0.316 µM, first compound 0.01 µM",98.5%
same,"viability, T/C",[13],82.6%
same,"viability, T/C",[14],78.8%
same,"viability, T/C",[15],93.6%
same,"viability, T/C",[16],106%
same,"viability, T/C","second compound 1 µM, first compound 0.00316 µM",112%
same,"viability, T/C","second compound 1 µM, first compound 0.01 µM",93.2%
same,"viability, T/C",[19],91%
same,"viability, T/C",[20],84.1%
same,"viability, T/C",[21],89.7%
same,"viability, T/C",[22],106%
same,"viability, T/C","second compound 3.16 µM, first compound 0.00316 µM",93.5%
same,"viability, T/C","second compound 3.16 µM, first compound 0.01 µM",80.9%
same,"viability, T/C",[25],85.6%
same,"viability, T/C",[26],77.2%
same,"viability, T/C",[27],89.9%
same,"viability, T/C",[28],85.9%
same,"viability, T/C","second compound 10 µM, first compound 0.00316 µM",77.7%
same,"viability, T/C","second compound 10 µM, first compound 0.01 µM",89.4%
same,"viability, T/C",[31],82.2%
same,"viability, T/C",[32],72.8%
same,"viability, T/C",[33],71.9%
same,"viability, T/C",[34],82.1%
